Measurements published in ChEMBL document CHEMBL1138947, “Potent inhibitors of the Qi site of the mitochondrial respiration complex III” (J Med Chem, 2006).
The source made the active and inactive calls. The calls are words filed in the database; no cut-off is given here.

What was measured:
[1] = tested on: Parastagonospora nodorum; test: Inhibition of Septoria nodorum growth; assay type: functional
[2] = tested on: Parastagonospora nodorum; test: Inhibition of Septoria nodorum growth in wheat at 40 ppm; assay type: functional, organism-based
[3] = molecular target: T1, Mitochondrial complex II; succinate dehydrogenase (Septoria tritici, UniProt G4XX53+O42772); test: Inhibition of Septoria nodorum succinate dehydrogenase and Qi site of mitochondrial respiratory chain complex 3 by FMET2-3 assay; assay type: protein-complex assay, Parastagonospora nodorum
T1 sequence (G4XX53 whole entry): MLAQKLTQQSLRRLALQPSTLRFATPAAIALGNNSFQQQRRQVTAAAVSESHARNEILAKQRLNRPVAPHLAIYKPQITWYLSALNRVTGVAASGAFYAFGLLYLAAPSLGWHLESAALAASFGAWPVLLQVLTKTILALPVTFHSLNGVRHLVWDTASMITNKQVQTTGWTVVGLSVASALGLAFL
T1 sequence (O42772 whole entry): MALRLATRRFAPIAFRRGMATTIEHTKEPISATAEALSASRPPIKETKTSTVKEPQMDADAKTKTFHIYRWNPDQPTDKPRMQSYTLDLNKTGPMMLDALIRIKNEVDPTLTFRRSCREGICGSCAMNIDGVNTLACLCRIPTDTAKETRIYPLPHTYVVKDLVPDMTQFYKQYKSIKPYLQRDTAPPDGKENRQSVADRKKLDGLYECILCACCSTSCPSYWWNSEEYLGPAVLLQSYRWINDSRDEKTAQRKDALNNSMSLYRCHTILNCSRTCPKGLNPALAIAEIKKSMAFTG

`CCCCCC[C@H]1C(=O)O[C@H](C)[C@H](NC(=O)c2cccc(NC=O)c2O)C(=O)O[C@@H](C)[C@@H]1OC(=O)CC(C)C` [ANTIMYCIN A] was tested, and the GR50 [1] was 0.033 µM, the Activity [2] was “inactive” and the IC50 [3] was 2 nM.

In the case of `O=C(Nc1ccc(Oc2ccc(C(F)(F)F)cc2)cc1)c1ccc2[nH]nnc2c1O`, the GR50 [1] is reported as >30 µM, the Activity [2] is reported as “inactive” and the IC50 [3] is reported as 5 nM.

With `O=C(Nc1ccc(Oc2ccc(C(F)(F)F)cc2)cc1)c1ccc2cn[nH]c2c1O` the GR50 [1] was 0.343 µM, the Activity [2] was “inactive” and the IC50 [3] was 26 nM.

In the case of `O=C(Nc1ccc(Oc2ccccc2)cc1)c1ccc2c[nH]nc2c1O`, the GR50 [1] is reported as 1.909 µM, the Activity [2] is reported as “inactive” and the IC50 [3] is reported as 127 nM.

In the case of `O=C(Nc1ccc(Oc2ccc(C(F)(F)F)cc2)cc1)c1sc2c[nH]nc2c1O`, the GR50 [1] is reported as 11.517 µM, the Activity [2] is reported as “inactive” and the IC50 [3] is reported as 26 nM.

In the case of `O=C(Nc1ccc(Oc2ccccc2)cc1)c1ccc2[nH]nnc2c1O`, the GR50 [1] is reported as >30 µM and the Activity [2] is reported as “inactive”.

`O=C(Nc1ccc(Oc2ccccc2)cc1)c1ccc2nn[nH]c2c1O` gave an IC50 [3] of 32 nM.

For `O=C(Nc1ccc(Oc2ccccc2)cc1)c1ccc2[nH]cnc2c1O`, the GR50 [1] was >30 µM, the Activity [2] was “inactive” and the IC50 [3] was > 30000 nM.
